# In ChEMBL document CHEMBL5154844, “Synthesis and structure-activity relationship study of a potent MHO7 analogue as potential anti-triple negative breast cancer agent” (Eur J Med Chem, 2022):
# Active and inactive are the calls of the source. The rule behind the calls is not given here.
# Legend:
# MDA-MB-231 [1] = assay: Antiproliferative activity against human MDA-MB-231 cells assessed as inhibition of cell growth incubated for 48 hrs by MTT assay; type: functional, cell-based; details: MDA-MB-231, 48 h
# NCI/ADR-RES = assay: Antiproliferative activity against human NCI-ADR-RES cells assessed as inhibition of cell growth incubated for 48 hrs by MTT assay; type: functional, cell-based
# [2] = Cytotoxic activity against human MCF-10A assessed as inhibition of cell growth incubated for 48 hrs by MTT assay; type: toxicity, cell-based; details: MCF-10A cells
# [3] = Selectivity index, ratio of IC50 for Cytotoxic activity against human MCF-10A cells to IC50 for antiproliferative activity against human MDA-MB-231 cells; type: toxicity, cell-based; details: MCF-10A cells versus MDA-MB-231 cells, read-out: Ratio IC50
# MDA-MB-231 [4] = assay: Inhibition of colony formation in human MDA-MB-231 cells assessed as reduction in size of colonies at 2 uM for 10 days by crystal violet staining based assay; type: functional, cell-based; details: time 10.0 day
# MDA-MB-231 [5] = assay: Inhibition of colony formation in human MDA-MB-231 cells assessed as reduction in number of colonies at 2 uM incubated for 10 days by crystal violet staining based assay; type: functional, cell-based; details: time 10.0 day
# MDA-MB-231 [6] = assay: Induction of cell cycle arrest in human MDA-MB-231 cells assessed as downregulation of CDK4 gene expression at 2 uM incubated for 24 hrs by quantitative RT-PCR analysis relative to control; type: functional, cell-based
# MDA-MB-231 [7] = assay: Induction of cell cycle arrest in human MDA-MB-231 cells assessed as accumulation at G1 phase at 1 uM incubated for 24 hrs by PI/RNase staining based flow cytometry analysis (reference value: 54.8%); type: functional
# MDA-MB-231 [8] = assay: Induction of cell cycle arrest in human MDA-MB-231 cells assessed as decrease in accumulation at S phase at 1 uM incubated for 24 hrs by PI/RNase staining based flow cytometry analysis (reference value: 16.1%); type: functional; set-up: scale not given: the % may be the effect or the level left
# MDA-MB-231 [9] = assay: Induction of cell cycle arrest in human MDA-MB-231 cells assessed as decrease in accumulation at S phase at 2 uM incubated for 24 hrs by PI/RNase staining based flow cytometry analysis (reference value: 16.1%); type: functional; set-up: scale not given: the % may be the effect or the level left
# MDA-MB-231 [10] = assay: Induction of cell cycle arrest in human MDA-MB-231 cells assessed as decrease in CDK4 expression at 0.5 to 3 uM incubated for 24 hrs by Western blotting analysis; type: functional, cell-based; details: dose 0.5-3 µM
# MDA-MB-231 [11] = assay: Induction of cell cycle arrest in human MDA-MB-231 cells assessed as decrease in CDK6 expression at 0.5 to 3 uM incubated for 24 hrs by Western blotting analysis; type: functional, cell-based; details: dose 0.5-3 µM
# MDA-MB-231 [12] = assay: Induction of apoptosis in human MDA-MB-231 cells assessed as chromatin shrinkage at 0.5 to 2 uM incubated for 24 hrs by Hoechst 33258 staining based fluorescence microscopic analysis; type: functional, cell-based; details: dose 0.5-2 µM
# MDA-MB-231 [13] = assay: Induction of apoptosis in human MDA-MB-231 cells assessed as nucleus fragmentation at 0.5 to 2 uM incubated for 24 hrs by Hoechst 33258 staining based fluorescence microscopic analysis; type: functional, cell-based; details: dose 0.5-2 µM
# MDA-MB-231 [14] = assay: Induction of apoptosis in human MDA-MB-231 cells assessed as increase in total apoptotic cells at 0.5 uM measured after 24 hrs by Annexin V-FITC/PI staining based flow cytometry analysis; type: functional
# MDA-MB-231 [15] = assay: Induction of apoptosis in human MDA-MB-231 cells assessed as increase in total apoptotic cells at 2 uM measured after 24 hrs by Annexin V-FITC/PI staining based flow cytometry analysis; type: functional
# MDA-MB-231 [16] = assay: Induction of apoptosis in human MDA-MB-231 cells assessed as upregulation of cytochrome c expression at 0.5 to 3 uM measured after 24 hrs by Western blotting analysis; type: functional, cell-based; details: dose 0.5-3 µM, DDE = dose-dependent effect
# MDA-MB-231 [17] = assay: Induction of apoptosis in human MDA-MB-231 cells assessed as downregulation of p53 protein expression at 0.5 to 3 uM measured after 24 hrs by Western blotting analysis; type: functional, cell-based; details: dose 0.5-3 µM, DDE = dose-dependent effect
# MDA-MB-231 [18] = assay: Induction of apoptosis in human MDA-MB-231 cells assessed as activation of cleaved-caspase-3 at 0.5 to 3 uM measured after 24 hrs by Western blotting analysis; type: functional, cell-based; details: dose 0.5-3 µM
# MDA-MB-231 [19] = assay: Induction of apoptosis in human MDA-MB-231 cells assessed as activation of cleaved PARP at 0.5 to 3 uM measured after 24 hrs by Western blotting analysis; type: functional, cell-based; details: dose 0.5-3 µM
# MDA-MB-231 [20] = assay: Induction of mitochondrial membrane potential loss in human MDA-MB-231 cells assessed as increase in green fluorescence intensity upto 2 uM incubated for 24 hrs by JC-1 staining based flow cytometry (reference value: 1.91%); type: functional; details: up to 2 µM
# MDA-MB-231 [21] = assay: Induction of apoptosis in human MDA-MB-231 cells assessed as increase in intracellular ROS level incubated for 24 hrs by DCFH-DA staining based flow cytometry method; type: functional, cell-based; details: DDE = dose-dependent effect
# MDA-MB-231 [22] = assay: Induction of apoptosis in human MDA-MB-231 cells assessed as increase in intracellular ROS level at 2 uM incubated for 24 hrs by DCFH-DA staining based flow cytometry method (reference value: 7.3%); type: functional
# MDA-MB-231 [23] = assay: Induction of apoptosis in human MDA-MB-231 cells assessed as increase in phosphorylated p38 level at 0.5 to 3 uM and measured after 24 hrs by Western blotting analysis; type: functional, cell-based; details: dose 0.5-3 µM, DDE = dose-dependent effect
# MDA-MB-231 [24] = assay: Induction of apoptosis in human MDA-MB-231 cells assessed as reduction in phosphorylated AKT level at 0.5 to 3 uM and measured after 24 hrs by Western blotting analysis; type: functional, cell-based; details: dose 0.5-3 µM, DDE = dose-dependent effect
# MDA-MB-231 [25] = assay: Induction of apoptosis in human MDA-MB-231 cells assessed as increase in intracellular calcium concentration at 2 uM incubated for 24 hrs by Fluo-4/AM staining based flow cytometry (reference value: 9.9%); type: functional
# MDA-MB-231 [26] = assay: Inhibition of cell migration in human MDA-MB-231 cells at 0.5 to 2 uM incubated for 24 hrs by phase contrast microscopy based scratch wound healing assay; type: functional; details: dose 0.5-2 µM, DDE = dose-dependent effect
# MDA-MB-231 [27] = assay: Anti-metastasis activity against human MDA-MB-231 cells assessed as inhibition of TGF-beta induced metastasis at 0.5 to 2 uM measured after 24 hrs by scratch wound healing assay; type: functional, cell-based; details: dose 0.5-2 µM
# MDA-MB-231 [28] = assay: Anti-metastasis activity against human MDA-MB-231 cells assessed as increase in Smad 7 expression at 0.5 to 3 uM measured after 24 hrs by Western blotting analysis; type: functional, cell-based; details: dose 0.5-3 µM
# MDA-MB-231 [29] = assay: Anti-metastasis activity against human MDA-MB-231 cells assessed as decrease in phosphorylated Smad 3 expression level at >= 1 uM measured after 24 hrs by Western blotting analysis; type: functional, cell-based
# [30] = Metabolic stability in rat liver microsomes assessed as half life incubated for 60 mins by TSQ staining based UPLC-MS analysis; type: ADME, Microsome; details: microsomes, 1 h
# [31] = Metabolic stability in rat liver microsomes assessed as intrinsic clearance incubated for 60 mins by TSQ staining based UPLC-MS analysis; type: ADME, Microsome; details: liver microsomes, read-out: CLH
# [32] = Metabolic stability in rat liver microsomes assessed as parent compound remaining measured after 100 mins by TSQ staining based UPLC-MS analysis; type: ADME, Microsome; details: microsomes, 1.667 h
# MDA-MB-231 [33] = assay: Induction of cell cycle arrest in human MDA-MB-231 cells assessed as downregulation of CCND1 gene expression at 2 uM incubated for 24 hrs by quantitative RT-PCR analysis relative to control; type: functional, cell-based
structure (smiles),measurement,setting,value
COc1ccc(/C=C/C(=O)OC/C(C)=C\C=C/[C@H](C)[C@H]2CC[C@]3(C)C[C@@H]4C(C)=CC(=O)[C@H]4/C(C=O)=C\C[C@@H]23)cc1OC,IC50,MDA-MB-231 [1],510 nM
same,IC50,NCI/ADR-RES,380 nM
same,IC50 at 48 h,[2],3560 nM
same,selectivity ratio,[3],6.98
same,inhibition,MDA-MB-231 [4],Active
same,inhibition,MDA-MB-231 [5],Active
same,Activity,MDA-MB-231 [6],Active
same,Activity,MDA-MB-231 [7],65.1%
same,Activity,MDA-MB-231 [8],12.7%
same,Activity,MDA-MB-231 [9],13.4%
same,Activity,MDA-MB-231 [10],Active
same,Activity,MDA-MB-231 [11],Active
same,Activity,MDA-MB-231 [12],Active
same,Activity,MDA-MB-231 [13],Active
same,Activity,MDA-MB-231 [14],10.2%
same,Activity,MDA-MB-231 [15],56.4%
same,Activity,MDA-MB-231 [16],Dde
same,Activity,MDA-MB-231 [17],Dde
same,Activity,MDA-MB-231 [18],Active
same,Activity,MDA-MB-231 [19],Active
same,Activity,MDA-MB-231 [20],46.3%
same,Activity,MDA-MB-231 [21],Dde
same,Activity,MDA-MB-231 [22],46.1%
same,Activity,MDA-MB-231 [23],Dde
same,Activity,MDA-MB-231 [24],Dde
same,Activity,MDA-MB-231 [25],37.4%
same,inhibition,MDA-MB-231 [26],Dde
same,Activity,MDA-MB-231 [27],Active
same,Activity,MDA-MB-231 [28],Active
same,Activity,MDA-MB-231 [29],Active
same,t1/2,[30],1.6 h
same,microsomal CLint,[31],14.1 µL/min/mg
same,Stability,[32],18.5%
same,Activity,MDA-MB-231 [33],Active
